Values of other authors in US20090298802A1, “Pharmaceutical Compositions” (priority 2005, published 2009).

Experiments:
patients with COPD = conditions: 516 patients with COPD, after 26 weeks of dosing, versus placebo recipients
guinea-pig model of COPD = conditions: COPD induced by cigarette smoke exposure

Question: For `O=C(Nc1c(Cl)cncc1Cl)c1ccc(OC(F)F)c(OCC2CC2)c1` [Roflumilast], which tolerability profile (patients with COPD) is on record?
Answer: equivalent to that seen in placebo recipients

Question: For `CCOc1ccc(-c2nc(-c3cccc(C(=O)O)n3)cs2)cc1OCC` [Tetomilast], which neutrophilia (guinea-pig model of COPD) is on record?
Answer: improvements

Question: And the specific airway resistance (guinea-pig model of COPD)?
Answer: improvements
